Reference: article PMC10295897, “A Novel MDM2-Binding Chalcone Induces Apoptosis of Oral Squamous Cell Carcinoma” (Biomedicines, 2023)

Test system: SCC-9 cells
Experiment: Caspase-3/7 flow cytometry
Type: cell-based, human
Conditions: SCC9, 2 × IC50, 48 h
Procedure: Cells of the SCC9 cell line were plated in 6-well plates (5 × 10^5 cells/well), trypsinized 48 h after treatment, labeled using the Annexin V-FITC Apoptosis Detection Kit according to the manufacturer’s protocol (#BMS500FI/300, Invitrogen), and analyzed by FACScalibur flow cytometry as in [35]. Furthermore, 5 × 10^4 SCC-9 cells were plated in a 24-well plate containing 1 mL of DMEM/F12 with 10% FBS per well. CellEvent™ Caspase-3/7 Reagent (#R37111, Invitrogen) was diluted in a culture medium according to the manufacturer’s instructions. […] The cells were analyzed by flow cytometry after 48 h of treatment.

For Cc1cccc(C)c1-n1cc(/C=C/C(=O)c2ccccc2N)nn1 [1f, (E)-1-(2-Aminophenyl)-3-(1-(2,6-dimethylphenyl)-1H-1,2,3-triazol-4-yl)prop-2-en-1-one], the “caspase 3/7 activity” value was 47.5%.
